Reference: ChEMBL document CHEMBL5512632, “Unlocking the potential of 1,4-naphthoquinones: A comprehensive review of their anticancer properties” (Eur J Med Chem, 2024)
Blank lines part the entries; values can stand above or below the compound they belong to.

Tests used:
[1] = tested on: MOLT-3; test: Cytotoxicity against human MOLT-3 cells incubated for 48 hrs by XTT assay; format: functional, cell-based; settings: MOLT-3, 48 h
[2] = tested on: MDA-MB-231; test: Cytotoxicity against human MDA-MB-231 cells incubated for 48 hrs by XTT assay; format: functional, cell-based; settings: MDA-MB-231, 48 h
[3] = tested on: HeLa; test: Antiproliferative activity against human HeLa cells assessed as inhibition of cell growth incubated for 24 hrs by sulforhodamine B assay; format: functional, cell-based
[4] = tested on: C6; test: Antiproliferative activity against rat C6 cells assessed as inhibition of cell growth incubated for 72 hrs by Sulforhodamine B assay; format: functional, cell-based; settings: C6, 72 h
[5] = tested on: B16-F10; test: Antiproliferative activity against mouse B16-F10 cells assessed as inhibition of cell growth incubated for 72 hrs by Sulforhodamine B assay; format: functional, cell-based; settings: B16-F10, 72 h
[6] = tested on: A549; test: Antiproliferative activity against human A549 cells assessed as inhibition of cell growth incubated for 72 hrs by Sulforhodamine B assay; format: functional, cell-based; settings: A549, 72 h
[7] = tested on: SK-BR-3; test: Antiproliferative activity against human SK-BR-3 cells assessed as inhibition of cell growth incubated for 72 hrs by Sulforhodamine B assay; format: functional, cell-based; settings: SK-BR-3, 72 h
[8] = tested on: MCF7; test: Antiproliferative activity against human MCF7 cells assessed as inhibition of cell growth incubated for 72 hrs by Sulforhodamine B assay; format: functional, cell-based; settings: MCF7, 72 h
[9] = tested on: MDA-MB-231; test: Antiproliferative activity against human MDA-MB-231 cells assessed as inhibition of cell growth incubated for 72 hrs by Sulforhodamine B assay; format: functional, cell-based; settings: MDA-MB-231, 72 h
[10] = Antiproliferative activity against human HGF cells assessed as inhibition of cell growth incubated for 72 hrs by Sulforhodamine B assay; format: toxicity, cell-based
[11] = tested on: HeLa; test: Cytotoxicity against human HeLa cells incubated for 48 hrs by MTT microplate reader assay; format: functional, cell-based
[12] = tested on: DU-145; test: Antiproliferative activity against human DU-145 cells assessed as inhibition of cell growth incubated for 24 hrs by celltiter blue reagent based fluorimetric analysis; format: functional; settings: DU-145, 24 h
[13] = tested on: RD; test: Antiproliferative activity against human RD cells assessed as inhibition of cell growth incubated for 24 hrs by celltiter blue reagent based fluorimetric analysis; format: functional
[14] = tested on: A549; test: Antiproliferative activity against human A549 cells assessed as inhibition of cell growth incubated for 24 hrs by celltiter blue reagent based fluorimetric analysis; format: functional; settings: A549, 24 h
[15] = tested on: HCT-116; test: Antiproliferative activity against human HCT-116 cells assessed as inhibition of cell growth by MTT assay; format: functional, cell-based
[16] = tested on: SiHa; test: Antiproliferative activity against human SiHa cells assessed as inhibition of cell growth by crystal violet staining based spectrophotometric assay; format: functional
[17] = Antiproliferative activity against human CaLo cells assessed as inhibition of cell growth by crystal violet staining based spectrophotometric assay; format: functional
[18] = tested on: C-33-A; test: Antiproliferative activity against human C-33-A cells assessed as inhibition of cell growth by crystal violet staining based spectrophotometric assay; format: functional
[19] = tested on: COLO-829; test: Antiproliferative activity against human COLO-829 cells assessed as inhibition of cell growth incubated for 72 hrs by WST-1 assay; format: functional, cell-based; settings: COLO-829, 72 h
[20] = tested on: MDA-MB-231; test: Antiproliferative activity against human MDA-MB-231 cells assessed as inhibition of cell growth incubated for 72 hrs by WST-1 assay; format: functional, cell-based; settings: MDA-MB-231, 72 h
[21] = tested on: T47D; test: Antiproliferative activity against human T47D cells assessed as inhibition of cell growth incubated for 72 hrs by WST-1 assay; format: functional, cell-based
[22] = tested on: MCF7; test: Antiproliferative activity against human MCF7 cells assessed as inhibition of cell growth incubated for 72 hrs by WST-1 assay; format: functional, cell-based; settings: MCF7, 72 h
[23] = tested on: Caco-2; test: Antiproliferative activity against human Caco-2 cells assessed as inhibition of cell growth incubated for 72 hrs by WST-1 assay; format: functional, cell-based; settings: Caco-2, 72 h
[24] = tested on: A549; test: Antiproliferative activity against human A549 cells assessed as inhibition of cell growth incubated for 72 hrs by WST-1 assay; format: functional, cell-based; settings: A549, 72 h
[25] = tested on: HepG2; test: Antiproliferative activity against human HepG2 cells assessed as inhibition of cell growth incubated for 24 hrs by MTT assay; format: functional, cell-based; settings: HepG2, 24 h
[26] = tested on: Hep 3B2; test: Antiproliferative activity against human Hep3B cells assessed as inhibition of cell growth incubated for 24 hrs by MTT assay; format: functional, cell-based
[27] = tested on: Huh-7; test: Antiproliferative activity against human Huh-7 cells assessed as inhibition of cell growth incubated for 24 hrs by MTT assay; format: functional, cell-based; settings: Huh-7, 24 h
[28] = tested on: TK-10; test: Growth inhibition of human TK-10 cells by Sulforhodamine B assay; format: functional
[29] = tested on: UACC-62; test: Growth inhibition of human UACC-62 cells by Sulforhodamine B assay; format: functional
[30] = tested on: MCF7; test: Growth inhibition of human MCF7 cells by Sulforhodamine B assay; format: functional
[31] = tested on: PC-3; test: Growth inhibition of human PC-3 cells by Sulforhodamine B assay; format: functional
[32] = tested on: HT-29; test: Antiproliferative activity against human HT-29 cells assessed as reduction in cell viability incubated for 24 hrs by MTT assay; format: functional, cell-based; settings: HT-29, 24 h
[33] = tested on: SCC-9; test: Cytotoxicity against human SCC-9 cells assessed as inhibition of cell growth incubated for 48 hrs by MTT reagent based spectrophotometric analysis; format: functional; settings: SCC-9, 48 h
[34] = tested on: SCC-25; test: Cytotoxicity against human SCC-25 cells assessed as inhibition of cell growth incubated for 48 hrs by MTT reagent based spectrophotometric analysis; format: functional; settings: SCC-25, 48 h
[35] = tested on: SCC-4; test: Cytotoxicity against human SCC-4 cells assessed as inhibition of cell growth incubated for 48 hrs by MTT reagent based spectrophotometric analysis; format: functional; settings: SCC-4, 48 h
[36] = tested on: IMR-32; test: Antiproliferative activity against human IMR-32 cells assessed as inhibition of cell growth incubated for 48 hrs by MTT assay; format: functional, cell-based; settings: IMR-32, 48 h
[37] = Antiproliferative activity against human LA-N-1 cells assessed as inhibition of cell growth incubated for 48 hrs by MTT assay; format: functional, cell-based; settings: LAN1, 48 h
[38] = Antiproliferative activity against human NB-39-nu cells assessed as inhibition of cell growth incubated for 48 hrs by MTT assay; format: functional, cell-based
[39] = tested on: SK-N-SH; test: Antiproliferative activity against human SK-N-SH cells assessed as inhibition of cell growth incubated for 48 hrs by MTT assay; format: functional, cell-based

SMILES: Cc1ccc(NC2=C(Cl)C(=O)c3ccccc3C2=O)cc1
IC50 [1]: 4.3 µM | IC50 [2]: 10.7 µM

SMILES: COc1ccc(C(C2=C(O)C(=O)c3ccccc3C2=O)c2c(C)[nH]n(-c3ccccc3)c2=O)c(O)c1 (centres undefined)
IC50 [11]: 2.9 µM

SMILES: O=C1C(Cl)=C(NC(Cc2ccc(O)cc2)C(=O)O)C(=O)c2ccccc21 (centres undefined)
IC50 [16]: 6.83 µM | IC50 [17]: 2.87 µM | IC50 [18]: 0.001 µM

SMILES: C=C(C)[C@@H]1CC[C@]2(COC(=O)c3cn(CCCOC4=C(Cl)C(=O)c5ccccc5C4=O)nn3)CC[C@]3(C)[C@H](CC[C@@H]4[C@@]5(C)CC[C@H](O)C(C)(C)[C@@H]5CC[C@]43C)[C@@H]12
IC50 [19]: 12.5 µM | IC50 [20]: 10 µM | IC50 [21]: 2.41 µM | IC50 [22]: 11.7 µM | IC50 [23]: 12.2 µM | IC50 [24]: 1.86 µM

SMILES: O=C1C(Sc2ccc3ccccc3c2)=C(Sc2ccc3ccccc3c2)C(=O)c2ccccc21
GI50 [28]: 8.26 µM | GI50 [29]: 9.92 µM | GI50 [30]: 7.75 µM | GI50 [31]: 7.21 µM

SMILES: COC(=O)N(Cc1ccccc1)C(C1=C(O)C(=O)c2ccccc2C1=O)c1ccc(Cl)cc1 (centres undefined)
IC50 [33]: 56.2 µM | IC50 [34]: 87.3 µM | IC50 [35]: 92.8 µM

Second part, led by results:

IC50 [3]: 3.2 µM
SMILES: O=C1C(Cl)=C(Nc2ccc(O)cc2)C(=O)c2ccccc21

IC50 [5]: 5.3 µM | IC50 [6]: 8.5 µM | IC50 [7]: 0.78 µM | IC50 [8]: 3.33 µM | IC50 [9]: 14 µM
SMILES: CC(=O)OC[C@H]1O[C@H](n2cc(COC3=CC(=O)c4ccccc4C3=O)nn2)[C@H](OC(C)=O)[C@H](OC(C)=O)[C@H]1OC(C)=O
IC50 [4]: 14.7 µM | IC50 at 72 h [10]: 17.7 µM

IC50 [12]: 0.4 µM | IC50 [14]: 0.5 µM
SMILES: O=C1C=C(CCCCCCCCCC[P+](c2ccccc2)(c2ccccc2)c2ccccc2)C(=O)c2ccccc21
IC50 [13]: 0.02 µM

IC50 [15]: 5.32 µM
SMILES: O=C1C=C(Sc2ccc([N+](=O)[O-])cc2)C(=O)c2ccccc21

IC50 [25]: 8.56 µM | IC50 [27]: 1.96 µM
SMILES: CCCCCCCC[S+]([O-])C1=CC(=O)c2ccccc2C1=O (centres undefined)
IC50 [26]: 0.96 µM

IC50 [32]: 3.2 µM
SMILES: CCOC(=O)c1cn(C2=CC(=O)c3ccccc3C2=O)nn1

IC50 [39]: 3.45 µM
SMILES: COCCSC1=C(C)C(=O)c2ccccc2C1=O
IC50 [36]: 2.43 µM | IC50 [37]: 1.55 µM | IC50 [38]: 10.7 µM
